Test results published in ChEMBL document CHEMBL1138936, “Potent hFPRL1 (ALXR) agonists as potential anti-inflammatory agents” (Bioorg Med Chem Lett, 2006).
Activity calls are given as the source filed them. No cut-off for these calls is given here.

Experiments:
[1] = biological target: T1, N-formyl peptide receptor 2 (Homo sapiens, UniProt P25090); experiment: Activity at human FPRL1-mediated calcium mobilization in CHO cells; format: functional, cell-based
T1 sequence (P25090 whole entry): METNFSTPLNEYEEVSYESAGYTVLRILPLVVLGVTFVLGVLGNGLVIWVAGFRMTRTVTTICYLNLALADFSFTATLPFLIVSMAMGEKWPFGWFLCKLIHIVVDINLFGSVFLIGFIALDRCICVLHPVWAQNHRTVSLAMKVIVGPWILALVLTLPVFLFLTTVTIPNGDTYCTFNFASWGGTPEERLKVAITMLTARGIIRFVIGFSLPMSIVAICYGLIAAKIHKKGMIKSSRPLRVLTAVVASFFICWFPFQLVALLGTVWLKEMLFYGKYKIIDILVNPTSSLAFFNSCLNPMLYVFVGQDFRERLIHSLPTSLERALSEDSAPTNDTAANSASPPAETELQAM

Mus musculus [2] = organism: Mus musculus; experiment: Reduction of swelling in mouse ear at 25 ug; format: functional
Mus musculus [3] = organism: Mus musculus; experiment: Reduction of swelling in mouse ear at 30 ug; format: functional; set-up: scale not given: the % may be the effect or the level left
Mus musculus [4] = experiment: Reduction of edema in mouse ear inflammation model at 1 mg/kg, po; format: functional; set-up: scale not given: the % may be the effect or the level left
Mus musculus [5] = organism: Mus musculus; experiment: Reduction of swelling in mouse ear at 2.5 ug; format: functional; set-up: scale not given: the % may be the effect or the level left
PMNL [6] = experiment: Inhibition of fMLP-induced PMN migration; format: functional, cell-based; settings: Homo sapiens
Mus musculus [7] = organism: Mus musculus; experiment: Reduction of swelling in mouse ear at 0.25 ug; format: functional; set-up: scale not given: the % may be the effect or the level left
PMNL [8] = experiment: Inhibition of IL8-induced PMN migration; format: functional, cell-based; settings: Homo sapiens
[9] = Clearance in rat at 0.5 mg/kg, iv; format: ADME, organism-based; set-up: dose 0.5 mg/kg, route intravenous; settings: in vivo
Mus musculus [10] = experiment: Reduction of edema in mouse ear inflammation model at 50 mg/kg, po; format: functional; set-up: scale not given: the % may be the effect or the level left
Mus musculus [11] = experiment: Reduction of edema in mouse ear inflammation model at 5 mg/kg, po; format: functional; set-up: scale not given: the % may be the effect or the level left
Mus musculus [12] = experiment: Unbound ligand concentration in mouse plasma at 5 mg/kg; format: ADME, organism-based; set-up: dose 5 mg/kg; settings: in vivo
[13] = Bioavailability in rat at 2 mg/kg, po; format: ADME, organism-based; settings: in vivo
Mus musculus [14] = experiment: Unbound ligand concentration in mouse plasma at 16.6 mg/kg; format: ADME, organism-based; set-up: dose 16.6 mg/kg; settings: in vivo
[15] = Half life in rat at 0.5 mg/kg, iv; format: ADME, organism-based; set-up: dose 0.5 mg/kg, route intravenous; settings: in vivo
[16] = Protein binding in mouse plasma; format: ADME, organism-based; settings: read-out: PPB (converted)
Mus musculus [17] = experiment: Reduction of edema in mouse ear inflammation model at 16.6 mg/kg, po; format: functional; set-up: scale not given: the % may be the effect or the level left
Mus musculus [18] = experiment: Unbound ligand concentration in mouse plasma at 50 mg/kg; format: ADME, organism-based; set-up: dose 50 mg/kg; settings: in vivo

SMILES	EC50 [1]	also measured
Cc1c(NC(=O)Nc2cccc(Cl)c2)c(=O)n(-c2ccccc2)n1C	> 10000 nM	–
CC(C)c1c(NC(=O)Nc2ccc(Cl)cc2)c(=O)n(-c2cnc3ccccc3c2)n1C	80 nM	–
CCc1c(NC(=O)Nc2ccc(Cl)cc2)c(=O)n(-c2ccccc2)n1C	140 nM	–
CC(C)c1c(NC(=O)Nc2ccc(C(F)(F)F)cc2)c(=O)n(C2=NCCS2)n1C	1470 nM	–
Cc1cc(NC(=O)Nc2c(C)n(C)n(-c3ccccc3)c2=O)ccc1F	> 10000 nM	–
Cc1c(NC(=O)Nc2ccc3c(c2)OCO3)c(=O)n(-c2ccccc2)n1C	5880 nM	–
Cc1c(NC(=O)Nc2ccc(F)cc2)c(=O)n(-c2ccccc2)n1C	4850 nM	–
CC(C)c1c(NC(=O)Nc2ccc(Cl)cc2)c(=O)n(-c2cncnc2)n1C	250 nM	–
Cc1ccc(NC(=O)Nc2c(C)n(C)n(-c3ccccc3)c2=O)cc1F	980 nM	–
CSc1ccc(NC(=O)Nc2c(C(C)C)n(C)n(-c3cnc4ccccc4c3)c2=O)cc1	30 nM	–
CC(C)c1c(NC(=O)Nc2ccc(Cl)cc2)c(=O)n(C2=NCCS2)n1C	540 nM	–
CC(C)c1c(NC(=O)Nc2ccccc2Cl)c(=O)n(-c2ccccc2)n1C	> 10000 nM	–
CCc1ccc(NC(=O)Nc2c(C)n(C)n(-c3ccccc3)c2=O)cc1	770 nM	–
CSc1ccc(NC(=O)Nc2c(C(C)C)n(C)n(C3=NCCS3)c2=O)cc1	5130 nM	–
Cc1ccc(NC(=O)Nc2c(C)n(C)n(-c3ccccc3)c2=O)cc1	1260 nM	–
CCc1c(NC(=O)Nc2ccc(C)c(F)c2)c(=O)n(-c2ccccc2)n1C	310 nM	–
CSc1ccc(NC(=O)Nc2c(C)n(C)n(-c3ccccc3)c2=O)cc1	170 nM	–
COc1ccc(NC(=O)Nc2c(C)n(C)n(-c3ccccc3)c2=O)cc1	2730 nM	–
CCCCC(Oc1ccccc1)[C@@H](O)/C=C/C=C\C=C\C=C\[C@@H](O)[C@@H](O)CCCC(=O)O (stereo not given in full)	–	Activity (Mus musculus [2]): Active

SMILES	EC50 [1]	also measured
Cc1c(NC(=O)Nc2nccs2)c(=O)n(-c2ccccc2)n1C	> 10000 nM	–
C[C@@H]1C[C@H]2[C@@H]3CCC4=CC(=O)C=C[C@]4(C)[C@@]3(F)[C@@H](O)C[C@]2(C)[C@@]1(O)C(=O)CO [DEXAMETHASONE]	–	Activity (Mus musculus [3]): 71%; Activity (Mus musculus [4]): 54%
CSc1ccc(NC(=O)Nc2c(C(C)C)n(C)n(-c3cncnc3)c2=O)cc1	43 nM	–
Cc1c(NC(=O)Nc2ccc(C(F)(F)F)cc2)c(=O)n(-c2ccccc2)n1C	100 nM	–
Cc1c(NC(=O)Nc2ccc(Cl)cc2)c(=O)n(-c2ccccc2)n1C	490 nM	–
CC1C(N(C)C(=O)N(C)c2ccc(I)cc2)C(=O)N(c2ccccc2)N1C (stereo not given)	> 10000 nM	Activity (Mus musculus [5]): 8%; IC50 (PMNL [6]): > 10000 nM; Activity (Mus musculus [7]): 2%; IC50 (PMNL [8]): > 10000 nM; Activity (Mus musculus [2]): 8%
Cc1c(NC(=O)Nc2ccc(C(C)C)cc2)c(=O)n(-c2ccccc2)n1C	12300 nM	–
Cc1c(NC(=O)Nc2ccc(C#N)cc2)c(=O)n(-c2ccccc2)n1C	3700 nM	–
Cc1c(NC(=O)Nc2ccccc2)c(=O)n(-c2ccccc2)n1C	> 10000 nM	–
Cc1c(NC(=O)Nc2ccc(I)cc2)c(=O)n(-c2ccccc2)n1C	30 nM	Activity (Mus musculus [5]): 35%; IC50 (PMNL [6]): 2000 nM; Activity (Mus musculus [7]): 31%; IC50 (PMNL [8]): 2000 nM; Activity (Mus musculus [2]): 52%
CCn1c(C(C)C)c(NC(=O)Nc2ccc(C)c(F)c2)c(=O)n1-c1ccccc1	100 nM	–
CC(C)c1c(NC(=O)Nc2ccc(C(F)(F)F)cc2)c(=O)n(-c2cnc3ccccc3c2)n1C	44 nM	–
Cc1c(NC(=O)Nc2ccc(Br)cc2)c(=O)n(-c2ccccc2)n1C	90 nM	–
CC(C)c1c(NC(=O)Nc2ccc(Cl)cc2)c(=O)n(-c2ccccc2)n1C	–	clearance [9]: 2.1 mL/min/kg; Activity (Mus musculus [10]): 58%; Activity (Mus musculus [11]): 11%; IC50 (PMNL [6]): 640 nM; unbound plasma concentration (Mus musculus [12]): 14 nM; bioavailability [13]: 91%; IC50 (PMNL [8]): 240 nM; unbound plasma concentration (Mus musculus [14]): 17 nM; half-life [15]: 2.78 h; fraction unbound [16]: 0.021; Activity (Mus musculus [17]): 39%; unbound plasma concentration (Mus musculus [18]): 185 nM
Cn1c(C(C)(C)C)c(NC(=O)Nc2ccc(Cl)cc2)c(=O)n1-c1ccccc1	23 nM	–
Cc1c(NC(=O)Nc2ccccc2Cl)c(=O)n(-c2ccccc2)n1C	> 10000 nM	–
CC(C)c1c(NC(=O)Nc2ccc(C(F)(F)F)cc2)c(=O)n(-c2cncnc2)n1C	150 nM	–
Cc1ccc(NC(=O)Nc2c(C(C)(C)C)n(C)n(-c3ccccc3)c2=O)cc1F	83 nM	–
Cc1ccc(NC(=O)Nc2c(C(C)C)n(C)n(-c3ccccc3)c2=O)cc1F	81 nM	–
